According to a melting point compilation (Tetko et al.; mined from patent text by program, amines drawn as free bases though some values may be those of a salt):

SMILES	melting point [°C]
CN(C)C1(c2ccccc2Cl)C(=O)N(Cc2ccc([N+](=O)[O-])cc2)c2ccc(Cl)cc21 (stereo not drawn)	189 to 193
CCC(C)(C)NC(=O)NC(C)C#N (stereo not drawn)	129 to 130
COSN=C1C(=O)N(C)C(=O)N1c1ccccc1F	124 to 127
O=C(Nc1ccc2ccc(Cl)nc2n1)c1cnccn1	308
CCC1(CC)C(=O)ON(C(=O)c2ccccc2)C1=O	76 to 79
CCCCCCCCCCCCCCCCOC1=C(OCCCCCCCCCCCCCCCC)c2nc3c(Br)sc(Br)c3nc21	71.5
Cc1cc(C)c(S(=O)(=O)On2nnc3ccccc32)c(C)c1	128 to 130
CC1(C(=O)N2C[C@H](Sc3ccc(OCC(F)(F)F)cc3C(F)(F)F)C[C@H]2C(=O)NC2(C#N)CC2)CC1	66 to 76
N=C(Nc1ccc(Cl)cc1)Nc1ncccc1OCc1cccc(Cl)c1F	204 to 207
COc1ccc(-c2nc(Cl)cc(Cl)n2)cc1	127 to 128
CC(C)N1CC(COc2ccc([N+](=O)[O-])c(C=O)c2)OC1=O (stereo not drawn)	94 to 97
COc1ccc(/C=C/C(=O)Nc2ccc(Br)cc2C(=O)O)cc1OC	210 to 213
Cc1cccc(C)c1C(=O)c1sc(Nc2ccc(N3CCOCC3)cc2)nc1N	221 to 223
CCOC(=O)c1ccccc1N(CC(=O)N(C)c1ccccc1)C(=O)CNC(=O)Nc1cccc(C)c1	201
CC(C)CC1(Cn2cnc3ccccc32)Sc2[nH]c(=O)n(C)c(=O)c2C1Sc1cccs1 (stereo not drawn)	198
N#CC1CC(c2ccccc2Cl)=NC1c1ccc(-c2ccc(OC(F)(F)F)cc2)cc1 (stereo not drawn)	132
COC(=O)c1c(C2=CC(=O)c3cccc(O)c3C2=O)c(C)n(C)c1C	178 to 180
O=Cc1coc2c(c1=O)CCc1ccccc1-2	153 to 156

SMILES	melting point [°C]
CC1(C)N=C(c2ccccc2Cl)c2cc(N)ccc2-n2cnnc21	264
CCCCc1oc2ccccc2c1C(=O)NCc1ccc2c(Br)c(OC(Cc3ccccc3)C(=O)OC)ccc2c1 (stereo not drawn)	110 to 112
CCN1C(=O)CCCc2cc(Nc3ncc(Cl)c(N[C@@H]4CCCC[C@H]4NS(C)(=O)=O)n3)c(OC)cc21	120 to 128
Cc1c(-c2ccncc2)oc2c1C(=O)CCC2	136 to 138
CC(Cl)(Cl)C(NC(=O)c1ccc(Cl)cc1)NC(=N[N+](=O)[O-])Nc1cccnc1 (stereo not drawn)	170 to 172
Cc1nn(C)c(C)c1-c1ccc(OC2SCC(O)C(O)C2O)cn1 (stereo not drawn)	132
CC(C)(C)C(=O)ON1C(C)(C)CC(OC(=O)c2ccccc2)CC1(C)C	107 to 110
O=[N+]([O-])c1cc([N+](=O)[O-])c(Nc2ccc3ccccc3c2[N+](=O)[O-])c(C(F)(F)F)c1	213 to 215
CCNC(=O)n1cc(F)c(NC(C)=O)nc1=O	233 to 235
CCCCCCCCCCCCCC(=O)c1c(O)cc(C)c(O)c1CCC	62
CC(C)(C)OC(=O)CN(C(=O)CN(C(=O)CN1C(=O)c2ccccc2C1=O)c1ccccc1)c1ccccc1	80
CC1(C)CN=C(c2cnc(S(C)(=O)=O)c(Cl)c2)O1	102 to 105
CCOC(=O)c1ncc(Cn2c(NC3CCN(C(=O)OCC)CC3)nc3ccccc32)o1	132
CCn1cc(C(=O)O)c(=O)cc1-c1ccc(N2CCCC2)cc1	276 to 278
CC1(C)C=C(c2ccccn2)c2cc(Cl)cc(Cl)c2OC1	124
Cn1c(-c2nnc3ccc(NC=O)nn23)cnc1[N+](=O)[O-]	224 to 226
COc1ccc2c(c1)c(S(=O)(=O)c1ccccc1)cn2CCCl	148 to 150

The remaining lines, values ahead:

melting point [°C]	SMILES
65	COC(=O)c1ccc(C(O)c2c(C)c3cc(C(F)(F)F)ccc3n2S(=O)(=O)c2cccc(C(C)(C)C)c2)cc1 (stereo not drawn)
147 to 150	CCOC(=O)c1ccc(N2CCN(C(=O)C=Cc3cc(C(C)(C)C)c(O)c(C(C)(C)C)c3)CC2)cc1
189	COc1ccc(CSCC(NC(=O)c2ccccc2)C(=O)NC(C)(C)c2ccccc2)cc1 (stereo not drawn)
78 to 82	CCCCCCCCCCOCCCN=C=O
152 to 154	O=C(NCCCC[C@H](Nc1nc2ccc(Cl)cc2cc1C(=O)O)C(=O)O)OCc1ccccc1
61 to 62	CCOC(=O)CCC(O)c1ccc(-c2ccccc2F)cc1 (stereo not drawn)
167 to 168	Fc1ccc2c(CN3CCN(c4ccc(Cl)cc4)CC3)n[nH]c2c1F
184 to 186	NC1=NN(c2ccccc2)C(c2ccc(Cl)cc2)C1 (stereo not drawn)
169	COc1ccc2c(c1Cl)c(CC(=O)O)c(C)n2C(=O)c1ccc(Cl)s1
163 to 165	O=[N+]([O-])c1cc(C(F)(F)F)cc2sc(=S)sc12
280	O=C(NC1=NCCS1)c1c(C(F)(F)F)nc(-c2ccccc2)c(-c2ccccc2)c1O
> 280	CCn1c(=O)c2[nH]c(/C=C/c3ccc(OC)c(C)c3C)nc2n(CC)c1=O
147 to 148	NC(=O)c1ccc(C(c2ccccc2[N+](=O)[O-])(C(F)(F)F)C(F)(F)F)cc1
223 to 224	Cc1ccc(OC2CCN(C(C=O)Nc3ccc4c(c3)OCC(=O)N4)CC2)cc1 (stereo not drawn)
119 to 121	CON1CCC2(CC1)C(OCc1ccccc1)=C(c1c(C)cc(C)cc1C)C(=O)N2CC1CC1
99	COc1cc(Cc2cnc(N)nc2N)cc(-c2ccc(C=O)cc2)c1OC
101 to 103	CCOC(=O)c1cc(-c2cc(OC)cc(OC)c2)ns1

melting point [°C]	SMILES
254 to 255	O=c1[nH]c2cc(C(F)(F)F)ccc2n1-c1cc(Cl)cc(Br)c1O
107 to 109	CCOC(=O)C1=CC(C)C2=c3c1cccc3=C1N=NC=C12 (stereo not drawn)
139 to 140	CCOP(=O)(Cc1ccc(NC(=O)CCc2cnoc2-c2ccccc2)cc1)OCC
83 to 84	O=C(c1ccc[nH]1)C1CCCCC1
221 to 223	COc1cc(Cc2cnc(N)nc2N)cc2c1NCCC2C (stereo not drawn)
184 to 186	Oc1ccc(-c2cc3cc(Cl)cc(Cl)c3o2)cc1
184 to 185	NC(=O)N1C(=O)C(=C(OC(=O)c2ccccn2)c2cccs2)c2cc(F)c(Cl)cc21
155 to 157	CS(=O)(=O)c1cccc(Cn2ccc(OCc3ccc(F)cc3F)c(Cl)c2=O)c1
202 to 204	NC(=O)c1ncoc1-c1cccc(O)c1
216 to 220	COc1cccc(Cn2c(=O)[nH]c3cc(Cl)cc(Cl)c3c2=O)c1
201	Cc1ccc(-c2ccc(Cl)c(OC3SCC(O)C(O)C3O)c2)cn1 (stereo not drawn)
154 to 155	CCC(CC)Cn1c(=O)c(=O)[nH]c2cc([N+](=O)[O-])c(-n3cccc3)cc21
197 to 198	CCOc1nn(Cc2ccc(OCc3cn4c(OCC)cccc4n3)cc2)cc1CCC(=O)O
164 to 167	CCCS(=O)(=O)Nc1c(C(=O)c2ccccc2)[nH]c2cc(Cl)ccc12
117 to 119	CC(C)n1nc(-c2c(-c3ccccc3)nn3ccc(OCC(=O)NCCN(C)C)cc23)ccc1=O
> 300	CC(C)(C)OC(=O)CC[C@H](NC(=O)c1ccc(C=Cc2cnc3nc(N)nc(N)c3c2)cc1)C(=O)OC(C)(C)C
